Assays:
[1] = Excretion and material balance in rats (urine, feces 0-24 h); type: in vivo; conditions: through the kidneys and urine
Description: The plasma samples at 0.167 h, 0.5 h, 3 h and 8 h after administration were obtained from the study of tissue distribution in rats ([Gu et al., 2024]). Urine, feces and bile samples at 0–24 h after administration were obtained from the excretion study of a single gavage administration of 25 mg/kg Deg-AZM in rats ([Gu et al., 2024]).
The types and proportions of metabolites in the excretion pathway were elucidated in this study. […] Based on the peak area in this study, the total amount of metabolites in urine and feces of rats was 0.589 times and 9.96 times that of the original form of Deg-AZM, respectively. The total amount of Deg-AZM excreted in its original form and various metabolites in urine and feces was 23.7% and 19.8% of the administered dose, respectively, with a material balance coefficient of 43.5%. Deg-AZM was mainly excreted in the form of its original form M0 (cumulative excretion fraction of 14.9%) and metabolite M2 (cumulative excretion fraction of 5.33%) through the kidneys and urine, and in the form of metabolite M1-2 (cumulative excretion fraction of 4.29%) and M2 (cumulative excretion fraction of 3.93%) through the intestines and feces. […] It is necessary to obtain standard samples of the main metabolites for accurate quantification or use isotope tracing techniques to further improve material balance research in the clinical stage.

P-gp [2] = biological target: T1, P-gp (Homo sapiens, UniProt P08183); test: Bidirectional transport in Caco-2 cell monolayer with P-gp inhibitor quinidine; type: in vitro ADME; conditions: ER > 2, reduced after quinidine
T1 construct: evaluated using Caco-2 cell monolayer both apical-to-basolateral (A-B) and basolateral-to-apical (B-A) directions; endogenous in cells; host or cells: Caco-2
Description: (§1) The human colon adenocarcinoma Caco-2 cell line was provided by Institute of Basic Medicine, Chinese Academy of Medical Sciences (Beijing, China). Caco-2 cells were cultured in a high sugar DMEM medium containing 10% (v/v) fetal bovine serum at 37°C and 5% CO2 incubator. Caco-2 cells (2.5 ×10^5/mL) was inoculated into Transwell polycarbonate membrane 12 well plate. The culture medium was changed every 2 days for the first 14 days, and then every day. After 21 consecutive days, fully differentiated cell monolayers were obtained for drug transport assays.
(§2) Transepithelial electrical resistance (TEER) was used to indicate monolayer integrity. The electrode of the Millcell ERS-2 voltammeter was placed in HBSS solution for 20 min to pre-balance. At the same time, the culture medium was removed from the Transwell culture plate, 0.5 mL of pre-heated HBSS solution was added into the Apical (AP) of transwell, 1.5 mL of pre-heated HBSS solution was added into the Basolateral (BL) of transwell. After that, the transwell was balanced at 37°C for 20 min and then replaced the HBSS solution with the pre-heated HBSS solution, the TEER value was measured finally. Caco-2 cell monolayers with TEER >350 Ω cm^2 which means that the cells have formed a tight monolayer, were used for the experiment. The TEER value was calculated according to the following formula: TEER=TEERT ‐ TEERc×A where TEERT represented the TEER value (Ω) of the measured Transwell chamber with Caco-2 cells, TEERC was the TEER value (Ω) of the transwell chamber in the control group, and A was the membrane area of the transwell cavity (1.12 cm^2 in this experiment).
(§3) In order to evaluate the usability of the Transwell model research, [^3H] Propranolol (0.5 μCi/mL) and [^14C] PEG4000 (1 μCi/mL) served as high-permeability and impermeability controls to verify the uptake direction on Caco-2 cell monolayer, respectively. Rhodamine 123 was used as a positive control for efflux mechanism in bidirectional transport assay on Caco-2 cell monolayer.
(§4) The transmembrane permeability of Deg-AZM (2, 10 or 50 µM) and the potential to inhibit P-gp by Deg-AZM (2, 10 or 50 µM) were evaluated using Caco-2 cell monolayer both apical-to-basolateral (A-B) and basolateral-to-apical (B-A) directions at 37°C for 1 h, the experiments were conducted using quinidine (50 μM) as the inhibitor for P-gp. At the end of incubation, receiver and donor samples were both diluted by assay buffer and analyzed by LC-MS/MS.

P-gp [3] = test system: T2, P-gp; test: as above; type: in vitro ADME, human; conditions: human, Caco-2, with quinidine 50 μM, (+) quinidine 50 μM, 37°C 1 h, n = 3
T2 construct: evaluated using Caco-2 cell monolayer both apical-to-basolateral (A-B) and basolateral-to-apical (B-A) directions; endogenous in cells; host or cells: Caco-2
Description: as §1, §2, §3, §4

CYP3A = test: HLM phenotyping assay with CYP3A inhibitor ketoconazole; type: in vitro ADME, human; conditions: 1 μM, HLM 0.5 mg/mL, NADPH, 90 min, with 1 µM ketoconazole
Description: Deg-AZM (1 μM) was treated with pooled HLM (0.5 mg/mL) and NADPH (1 mM) for 90 min with or without seven specific inhibitors (10 µM furafylline for CYP1A2, 10 µM ticlopidine for CYP2B6, 5 µM montelukast for CYP2C8, 10 µM sulfaphenazole for CYP2C9, 10 µM ticlopidine for CYP2C19, 2.5 µM quinidine for CYP2D6, 1 µM ketoconazole for CYP3A). Isoform-selective probe substrates, 10 µM phenacetin for CYP1A2, 20 µM bupropion for CYP2B6, 2 µM amodiaquine for CYP2C8, 5 µM diclofenac for CYP2C9, 20 µM S-mephenytoin for CYP2C19, 5 µM bufuralol for CYP2D6, 2 µM midazolam for CYP3A4, were used as positive controls.

rCYP3A4 = biological target: T3, rCYP3A4 (Homo sapiens, UniProt P08684); test: Recombinant CYPs phenotyping assay; type: in vitro ADME; conditions: 1 μM, 1.5 h
T3 construct: purchased Research Institute for Liver Diseases Co. Ltd., Shanghai
Description: Deg-AZM (1 μM) was treated with pooled NADPH (1 mM) and recombinant CYPs (rCYP1A2, rCYP2B6, rCYP2C8, rCYP2C9, rCYP2C19, rCYP2D6, and rCYP3A4, purchased from Research Institute for Liver Diseases Co. Ltd., Shanghai) at 25 pmol/mL for 90 min. The isoform-selective probe substrates served as positive controls (same as the positive controls in HLM phenotyping assays).

T3 sequence (P08684 whole entry): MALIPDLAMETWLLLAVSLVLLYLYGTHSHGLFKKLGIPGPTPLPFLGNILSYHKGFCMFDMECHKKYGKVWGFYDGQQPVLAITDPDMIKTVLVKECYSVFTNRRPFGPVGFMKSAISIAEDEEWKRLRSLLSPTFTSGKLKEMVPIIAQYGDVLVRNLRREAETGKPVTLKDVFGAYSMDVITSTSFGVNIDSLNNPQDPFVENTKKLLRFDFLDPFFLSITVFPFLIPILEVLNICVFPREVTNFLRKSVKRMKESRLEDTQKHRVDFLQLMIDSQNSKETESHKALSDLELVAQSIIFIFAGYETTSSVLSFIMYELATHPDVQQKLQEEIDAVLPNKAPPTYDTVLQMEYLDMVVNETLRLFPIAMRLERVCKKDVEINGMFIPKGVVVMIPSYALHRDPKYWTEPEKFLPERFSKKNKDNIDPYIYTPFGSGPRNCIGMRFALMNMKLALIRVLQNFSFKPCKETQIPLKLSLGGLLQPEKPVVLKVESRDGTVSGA
T1 sequence (P08183 whole entry): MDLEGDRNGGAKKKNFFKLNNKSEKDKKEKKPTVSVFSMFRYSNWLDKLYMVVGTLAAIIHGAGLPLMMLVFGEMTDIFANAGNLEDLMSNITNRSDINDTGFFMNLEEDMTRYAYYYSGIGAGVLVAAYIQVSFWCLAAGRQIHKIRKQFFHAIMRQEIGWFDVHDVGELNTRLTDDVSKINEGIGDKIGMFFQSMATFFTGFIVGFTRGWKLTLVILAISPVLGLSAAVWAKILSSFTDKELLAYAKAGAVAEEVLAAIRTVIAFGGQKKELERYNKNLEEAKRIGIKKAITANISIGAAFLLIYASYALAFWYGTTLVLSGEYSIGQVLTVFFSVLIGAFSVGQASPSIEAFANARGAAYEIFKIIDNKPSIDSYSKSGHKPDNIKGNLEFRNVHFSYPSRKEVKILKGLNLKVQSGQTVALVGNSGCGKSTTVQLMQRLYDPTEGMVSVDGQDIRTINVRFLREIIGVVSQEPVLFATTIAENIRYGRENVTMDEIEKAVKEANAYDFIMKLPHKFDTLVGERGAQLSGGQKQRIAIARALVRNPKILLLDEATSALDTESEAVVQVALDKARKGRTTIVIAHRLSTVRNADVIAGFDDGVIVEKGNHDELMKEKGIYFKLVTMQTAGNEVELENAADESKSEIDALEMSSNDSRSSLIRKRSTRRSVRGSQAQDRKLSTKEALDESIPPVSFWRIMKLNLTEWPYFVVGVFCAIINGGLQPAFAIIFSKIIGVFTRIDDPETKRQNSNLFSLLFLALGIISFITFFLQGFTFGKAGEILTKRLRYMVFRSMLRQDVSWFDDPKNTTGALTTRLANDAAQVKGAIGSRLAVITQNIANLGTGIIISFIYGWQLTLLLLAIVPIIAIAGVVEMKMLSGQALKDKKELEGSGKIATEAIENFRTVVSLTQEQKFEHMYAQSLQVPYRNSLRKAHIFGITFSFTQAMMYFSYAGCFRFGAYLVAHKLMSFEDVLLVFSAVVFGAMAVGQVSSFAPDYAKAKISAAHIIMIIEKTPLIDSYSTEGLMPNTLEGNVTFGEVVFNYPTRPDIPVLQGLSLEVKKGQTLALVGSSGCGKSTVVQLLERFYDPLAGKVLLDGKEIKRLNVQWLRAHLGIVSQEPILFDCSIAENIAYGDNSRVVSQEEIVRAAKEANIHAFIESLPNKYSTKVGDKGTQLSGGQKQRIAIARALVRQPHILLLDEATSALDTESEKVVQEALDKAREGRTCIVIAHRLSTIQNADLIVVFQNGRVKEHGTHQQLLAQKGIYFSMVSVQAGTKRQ

- Cumulative excretion fraction, urine [1]: 14.9%
- Papp A→B at 1 h, 2 μM (P-gp [3]; 2 μM): 0.823 ± 0.0911 ×10⁻⁶ cm/s
- Papp B→A at 1 h, 2 μM (P-gp [3]; 2 μM): 0.617 ± 0.0488 ×10⁻⁶ cm/s
- Papp A→B at 1 h, 10 μM (P-gp [3]; 10 μM): 0.471 ± 0.0908 ×10⁻⁶ cm/s
- Papp B→A at 1 h, 10 μM (P-gp [3]; 10 μM): 0.52 ± 0.119 ×10⁻⁶ cm/s
- Papp A→B at 1 h, 50 μM (P-gp [3]; 50 μM): 0.589 ± 0.0315 ×10⁻⁶ cm/s
- Papp B→A at 1 h, 50 μM (P-gp [3]; 50 μM): 0.586 ± 0.117 ×10⁻⁶ cm/s
- Deg-AZM remaining (CYP3A): 93.4%
- Average residual proportion of Deg-AZM (rCYP3A4; 25 pmol/mL CYP3A4 monomeric enzyme): 75.9%
- Elimination proportion of Deg-AZM (rCYP3A4; CYP3A4 monomeric enzyme): greater than 15%
Compound: CCC1OC(=O)C(C)C(O)C(C)C(O)C(C)(O)CC(C)CN(C)C(C)C(O)C1(C)O (centres unmarked) [Deg-AZM, Deglycosylated azithromycin]
- P-gp substrate assessment (P-gp [2]): might be the substrate of intestinal efflux transporter P-gp

Source: PMC11750672, “The in vivo metabolic pathway of Deg-AZM and in vitro investigations into the contribution of drug metabolizing enzymes and drug transporters in the drug interactions of Deg-AZM, a clinical-stage new transgelin agonist” (Frontiers in Pharmacology, 2025)
